This is an account of results in ChEMBL document CHEMBL4196131 (J Med Chem, 2018).

Broadly, the EC50 is the concentration giving half of the maximal effect. What is called IC50 is the concentration at which inhibition is half-maximal. What is called inhibition is how much of the control response was suppressed.

The target of assay [1] is T1, Estrogen receptor (Homo sapiens) (UniProt P03372).
T1 sequence (whole entry): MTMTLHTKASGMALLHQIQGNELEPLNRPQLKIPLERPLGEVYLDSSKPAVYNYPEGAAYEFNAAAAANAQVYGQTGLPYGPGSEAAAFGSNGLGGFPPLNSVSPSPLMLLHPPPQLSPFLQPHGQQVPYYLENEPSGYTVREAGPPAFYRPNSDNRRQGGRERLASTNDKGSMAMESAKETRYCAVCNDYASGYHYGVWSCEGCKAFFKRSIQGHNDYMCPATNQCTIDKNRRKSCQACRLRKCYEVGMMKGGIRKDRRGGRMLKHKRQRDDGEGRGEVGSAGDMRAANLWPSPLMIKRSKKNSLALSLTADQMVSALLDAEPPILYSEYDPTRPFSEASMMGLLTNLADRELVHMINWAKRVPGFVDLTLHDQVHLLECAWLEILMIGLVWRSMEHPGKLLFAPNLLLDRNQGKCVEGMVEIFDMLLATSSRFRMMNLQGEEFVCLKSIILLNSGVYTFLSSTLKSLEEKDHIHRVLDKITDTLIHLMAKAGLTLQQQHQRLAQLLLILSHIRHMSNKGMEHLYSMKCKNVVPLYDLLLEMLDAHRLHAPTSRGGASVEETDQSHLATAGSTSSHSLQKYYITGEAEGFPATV
The assay can be described thus: Agonist activity at human ERalpha expressed in HEK293T cells after 24 hrs by ERE-based dual luciferase reporter gene assay relative to E2. The class given is cell-based. Background: In a reporter assay the amount or activity of a reporter protein is the signal.

For assay [2], the target named is T2, Estrogen receptor beta (Homo sapiens, UniProt Q92731). Briefly: Agonist activity at human ERbeta expressed in HEK293T cells after 24 hrs by ERE-based dual luciferase reporter gene assay. The class given is cell-based.
The target of assay [3] is T2, Estrogen receptor beta. Briefly: Agonist activity at human ERbeta expressed in HEK293T cells after 24 hrs by ERE-based dual luciferase reporter gene assay relative to E2. It counts as cell-based.
The target in a further assay is T3, Estrogen receptor (Homo sapiens, UniProt P03372).
T3 sequence (P03372 whole entry): T1 sequence (whole entry)
Briefly: Antagonist activity at human ERalpha expressed in HEK293T cells after 24 hrs by ERE-based dual luciferase reporter gene assay. The class given is cell-based.

The target of assay [4] is T1, Estrogen receptor (Homo sapiens). Briefly: Antagonist activity at human ERalpha expressed in HEK293T cells after 24 hrs by ERE-based dual luciferase reporter gene assay relative to E2. The class given is cell-based.
The target in assay [5] is T2, Estrogen receptor beta. Briefly: Antagonist activity at human ERbeta expressed in HEK293T cells after 24 hrs by ERE-based dual luciferase reporter gene assay relative to E2. Set-up: concentration or dose not given beside the values. It counts as cell-based.
Assay [6] can be described thus: Inhibition of NFkappaB in mouse RAW 264.7 cells assessed as reduction in LPS induced NO production after 24 hrs by Griess assay. It counts as cell-based. The settings on record: RAW264.7, 24 h. In general terms: The Griess reaction detects nitrite, a stable product of nitric oxide.
The next assay is filed under the species Mus musculus. Briefly: Inhibition of NFkappaB in mouse RAW 264.7 cells assessed as reduction in LPS induced NO production at 10 uM after 24 hrs by Griess assay relative to control. It counts as cell-based.
Another assay relates to MCF7. Briefly: cells. The following applies: Homo sapiens, MCF7, 72 h.

T2 sequence (Q92731 whole entry): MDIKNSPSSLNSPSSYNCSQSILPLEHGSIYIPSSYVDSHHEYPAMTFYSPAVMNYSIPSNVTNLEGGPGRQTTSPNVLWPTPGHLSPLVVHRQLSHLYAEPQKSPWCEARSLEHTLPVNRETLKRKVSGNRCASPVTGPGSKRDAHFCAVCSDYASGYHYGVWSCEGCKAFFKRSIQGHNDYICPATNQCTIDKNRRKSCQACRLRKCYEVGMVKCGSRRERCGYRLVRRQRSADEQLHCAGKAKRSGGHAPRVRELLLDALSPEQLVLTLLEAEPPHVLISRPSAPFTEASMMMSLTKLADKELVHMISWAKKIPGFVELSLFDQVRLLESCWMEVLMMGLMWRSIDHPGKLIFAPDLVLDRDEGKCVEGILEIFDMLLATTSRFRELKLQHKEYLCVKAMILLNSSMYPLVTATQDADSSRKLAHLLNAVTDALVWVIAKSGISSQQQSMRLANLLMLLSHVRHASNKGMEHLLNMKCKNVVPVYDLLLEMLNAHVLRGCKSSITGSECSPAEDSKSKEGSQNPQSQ

Regarding `O=S(=O)(Oc1ccccc1)C1CC2OC1C(c1ccc(/C=C/c3ccccc3)cc1)=C2c1ccc(O)cc1` (stereo unspecified), the Efficacy in assay [1] was 13%; on Estrogen receptor beta [3], 48%; in [4] it was 34%; on Estrogen receptor beta [5], 83%. At Estrogen receptor beta [2], this compound had an EC50 of 2.78 µM. The IC50 at Estrogen receptor stood at 1.03 µM; in [6], 9.7 µM; in the assay on MCF7, 25.2 µM. Besides, in the assay filed under Mus musculus, the inhibition was 40.4%.
For `COc1cccc(OS(=O)(=O)C2CC3OC2C(c2ccc(/C=C/c4cc(O)cc(O)c4)cc2)=C3c2ccc(O)cc2)c1` (stereo unspecified), the Efficacy was 55% in assay [1], 52% at Estrogen receptor beta [3], 36% in assay [4] and 102% on Estrogen receptor beta [5]. At Estrogen receptor beta [2], this compound displayed an EC50 of 0.003 µM. Further, the results for the IC50 (against Estrogen receptor; in [6]; with MCF7) were 0.048 µM, 11.1 µM and 10.4 µM, respectively. In addition, the inhibition in the assay listed under Mus musculus was 42.3%.
Take `O=S(=O)(Oc1cccc2ccccc12)C1CC2OC1C(c1ccc(/C=C/c3cc(O)cc(O)c3)cc1)=C2c1ccc(O)cc1` (stereo unspecified): the Efficacy in [1] was -10%; on Estrogen receptor beta [3] it was 65%; in assay [4] it was -4%; at Estrogen receptor beta [5], 71%. This compound gave an EC50 at Estrogen receptor beta [2] of 0.222 µM. The values for the IC50 (against Estrogen receptor; in assay [6]; in the assay with MCF7) were 0.049 µM, 3.29 µM and 11 µM, respectively. Besides, in the assay listed under Mus musculus, the inhibition turned out to be 44.4%.
With `O=S(=O)(Oc1ccccc1)C1CC2OC1C(c1ccc(/C=C/c3cc(O)cc(O)c3)cc1)=C2c1ccc(O)cc1` (stereo unspecified), the Efficacy was 29% in [1], 37% at Estrogen receptor beta [3], 4% in [4] and 76% on Estrogen receptor beta [5]. For the same compound, the EC50 at Estrogen receptor beta [2] amounted to 0.658 µM. Moreover, the IC50 turned out to be 0.428 µM against Estrogen receptor, 6.02 µM in assay [6] and 20.1 µM with MCF7. For the same compound, in the assay filed under Mus musculus, the inhibition was 70.9%.
On to `COc1cc(/C=C/c2cccc(OS(=O)(=O)C3CC4OC3C(c3ccc(O)cc3)=C4c3ccc(O)cc3)c2)cc(OC)c1` (stereo unspecified), for which the Efficacy in [1] worked out at 13%; at Estrogen receptor beta [3] it was 47%; in assay [4] it was 47%; at Estrogen receptor beta [5] it was 86%. For the same compound, the figures for the IC50 (against Estrogen receptor; in [6]; in the assay on MCF7) were 0.738 µM, 6.37 µM and 11.5 µM, respectively. In addition, in the assay listed under Mus musculus, the inhibition is 55.1%.
As for `CC/C(=C(\c1ccc(O)cc1)c1ccc(OCCN(C)C)cc1)c1ccccc1` [AFIMOXIFENE], the figures for the IC50 (in [6]; in the assay on MCF7) were > 100 µM and 9.5 µM, respectively. Moreover, the inhibition in the assay listed under Mus musculus worked out at 21.5%.
On to `COc1cc(/C=C/c2ccc(OS(=O)(=O)[C@@H]3C[C@@H]4O[C@H]3C(c3ccc(O)cc3)=C4c3ccc(O)cc3)cc2)cc(OC)c1`, for which the IC50 against Estrogen receptor is 0.003 µM; in [6] it was 0.3 µM; in the assay on MCF7, 2.31 µM. In [4], the Efficacy was 11%.
As to `O=S(=O)(Oc1cccc(O)c1)C1CC2OC1C(c1ccc(/C=C/c3cc(O)cc(O)c3)cc1)=C2c1ccc(O)cc1` (stereo unspecified), the Efficacy turned out to be 5% in assay [1], 17% at Estrogen receptor beta [3], 17% in [4] and 106% on Estrogen receptor beta [5]. For the same compound, the IC50 was 6.02 µM against Estrogen receptor, > 100 µM in assay [6] and 23 µM in the assay on MCF7. In addition, in the assay filed under Mus musculus, the inhibition came out at 12.3%.
Take `COc1cc(/C=C/c2ccc(OS(=O)(=O)[C@H]3C[C@H]4O[C@@H]3C(c3ccc(O)cc3)=C4c3ccc(O)cc3)cc2)cc(OC)c1`: the figures for the IC50 (against Estrogen receptor; in [6]; in the assay with MCF7) were 0.027 µM, 0.48 µM and 18 µM, respectively. For the same compound, the Efficacy in assay [4] is 72%.
For `O=S(=O)(Oc1ccc(O)cc1)C1CC2OC1C(c1ccc(/C=C/c3cc(O)cc(O)c3)cc1)=C2c1ccc(O)cc1` (stereo unspecified), the Efficacy worked out at 12% in assay [1], 51% on Estrogen receptor beta [3], 8% in assay [4] and 88% on Estrogen receptor beta [5]. For the same compound, at Estrogen receptor beta [2], the EC50 turned out to be 0.355 µM. The IC50 was 0.054 µM against Estrogen receptor and 14.1 µM with MCF7. In addition, the inhibition in the assay listed under Mus musculus worked out at 41%.
